Data taken from paper PMC5944028, “Nonclinical and clinical pharmacological characterization of the potent and selective cathepsin K inhibitor MIV-711” (Journal of Translational Medicine, 2018).

Assays:
rabbit cathepsin K = molecular target: T1, rabbit cathepsin K (Oryctolagus cuniculus, UniProt P43236); assay: Recombinant enzyme assay, rabbit cathepsin K; type: biochemical; settings: footnote a: IC50
T1 construct: made in house; host or cells: E. coli
From the text: Recombinant cathepsin K enzymes from all species were expressed in E. coli, purified and activated. Human cathepsin F and cathepsin S were expressed in Baculovirus, purified and activated. Purified human cathepsins B and H (Athens Research Technology), cathepsin L (Calbiochem), and cathepsin V (R & D Systems) were purchased.
H-D-Ala_Leu-Lys-AMC was used as the substrate in assays of cathepsin K from non-rodent species (human, dog, rabbit and guinea pig), and Z-Leu-Arg-AMC was used as the substrate in assays of cathepsin K from rodent species (mouse and rat). […]
Assays were carried out in white polystyrene 96-well plates in a final volume of 100 µL. […] Plates were read in a Fluoroskan Ascent (Thermo Labsystems, Helsinki, Finland) in kinetic mode, with excitation and emission filters of 390 and 460 nm, respectively. Rates were determined by linear regression of the fluorescence/time data in Excel. Rates were fitted by non-linear regression to either the competitive inhibition equation, with the substrate concentration fixed at the value in the assay and the KM fixed to the value previously determined, or the IC50 equation using GraphPad Prism (GraphPad, version 6, San Diego, USA) to obtain Ki or IC50 values, respectively.

human cathepsin K = molecular target: T2, human cathepsin K (Homo sapiens, UniProt P43235); assay: Kinetics of inhibition by progress curve analysis; type: biochemical
T2 construct: made in house; host or cells: E. coli
T2 sequence (P43235 115-329): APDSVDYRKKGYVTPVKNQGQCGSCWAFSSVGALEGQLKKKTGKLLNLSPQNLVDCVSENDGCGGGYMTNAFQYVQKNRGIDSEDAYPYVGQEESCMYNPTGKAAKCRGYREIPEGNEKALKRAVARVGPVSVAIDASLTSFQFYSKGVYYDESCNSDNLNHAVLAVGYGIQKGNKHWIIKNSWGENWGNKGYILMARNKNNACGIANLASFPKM
Method: The kinetics of MIV-711 inhibition of human recombinant cathepsin K were measured by progress curve analysis. Briefly, 100 µmol/L substrate and 0.5 nmol/L cathepsin K were combined in 0.5 mL of buffer in a quartz cuvette and the fluorescence measured continuously in a spectrofluorometer (Hitachi F-4500, Hitachi Scientific Instruments, Woking, UK). Excitation wavelength was 385 nm and emission wavelength was 460 nm and slits were 5 and 10 nm for excitation and emission, respectively. PMT voltage was 700 V and the response time was 0.01 s. Once a linear rate was established, 5 µL MIV-711 (final assay concentration between 10 and 50 nmol/L) or 5 µL DMSO control was added and data collected until a new equilibrium rate was achieved. Data were imported into GraphPad Prism and then fitted to the Morrison equation [26] to obtain kobs. The kobs values were plotted against the inhibitor concentration and fitted to a straight line to obtain kon and koff.

urine NTX-I = assay: Monkey urine NTX-I, multiple doses; type: in vivo, cynomolgus monkeys (Macaca fascicularis)
Method: Biomarkers such as NTX-I (bone resorption) and CTX-II (cartilage degradation) are typically measured in urine. Additional experiments in which urine was collected were therefore performed. In these experiments, four cynomolgus monkeys (Macaca fascicularis) were used (Aptuit, Edinburgh, UK). The animals were healthy young females weighing 3.5–4 kg. Animals were dosed with vehicle or MIV-711 via oral gavage at a dose volume of 5 mL/kg between 7:30 and 8:30 a.m. Animals first received vehicle via oral gavage for five consecutive days. After a washout period, the animals then received MIV-711 (30 µmol/kg) via oral gavage for five consecutive days.
Urine was collected between 8–12 a.m., 12 a.m.–4 p.m. and 4 p.m.–8 a.m. on Day 1 and Day 5 of respective treatment. Biomarkers were measured in each urine sample, corrected for creatinine, and the mean value of the three samples on Day 1 and Day 5 was calculated. The effect of MIV-711 was evaluated by comparing biomarkers in urine samples collected on Day 1 and Day 5 with respective vehicle sample. [drawing 3]
The quantification of CTX-I in monkey plasma samples and human serum samples was performed using a commercially available kit (Serum CrossLaps ELISA, IDS Nordic, Herlev, Denmark). The levels of CTX-I in monkey urine samples were measured using a commercially available kit (Urine BETA CrossLaps ELISA, IDS Nordic). […]

T1 sequence (P43236 115-329): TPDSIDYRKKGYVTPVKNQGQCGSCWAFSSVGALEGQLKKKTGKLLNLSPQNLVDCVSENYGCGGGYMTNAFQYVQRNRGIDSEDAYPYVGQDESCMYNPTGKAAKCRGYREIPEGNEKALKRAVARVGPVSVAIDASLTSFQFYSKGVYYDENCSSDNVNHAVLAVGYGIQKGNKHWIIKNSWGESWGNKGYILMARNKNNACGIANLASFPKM

In the case of `C#C[C@@H]1CN(C(=O)[C@H](CC(C)C)NC(=O)c2ccc(-c3nc(N4CCN(C)CC4)sc3F)cc2)[C@@H]2C(=O)CO[C@H]12` [MIV-711], the IC50 (rabbit cathepsin K) is reported as 3.3 nM, the residence time (human cathepsin K; from koff) is reported as “about 90 s” and the Ki (human cathepsin K; from kon and koff experiments, read-out: Ki from kinetic experiments) is reported as 1.7 nM. For the same molecule, the koff rate (human cathepsin K; human cathepsin K) was 0.008 s⁻¹, the kon rate (human cathepsin K; human cathepsin K) was 4.6e+06 M⁻¹ s⁻¹ and the “Reduction of urinary NTX-I compared to vehicle” value (urine NTX-I; 30 µmol/kg p.o. once daily for 5 days, creatinine-corrected) was 71%. The “Effect on urinary NTX-I compared to vehicle” value (urine NTX-I; single dose 30 µmol/kg p.o. (Day 1)) was “immediately reduced”.
